From patent US8846698B2, “Pyrrolo[2,3-d]pyrimidine tropomysin-related kinase inhibitors” (Pfizer Limited, priority 2011, dated 2014) come the findings set out here.

In data set [1] the target is T1, TRKA (Homo sapiens (Human), UniProt P04629). Kind of data set: Isolated TRK enzyme assay (HTRF KinEASE-TK), TRKA. The data set is classed as biochemical. To be noted: isolated TRKA enzyme; read-out: TrkA enzyme potency.
Target sequence in this assay (P04629 441-796): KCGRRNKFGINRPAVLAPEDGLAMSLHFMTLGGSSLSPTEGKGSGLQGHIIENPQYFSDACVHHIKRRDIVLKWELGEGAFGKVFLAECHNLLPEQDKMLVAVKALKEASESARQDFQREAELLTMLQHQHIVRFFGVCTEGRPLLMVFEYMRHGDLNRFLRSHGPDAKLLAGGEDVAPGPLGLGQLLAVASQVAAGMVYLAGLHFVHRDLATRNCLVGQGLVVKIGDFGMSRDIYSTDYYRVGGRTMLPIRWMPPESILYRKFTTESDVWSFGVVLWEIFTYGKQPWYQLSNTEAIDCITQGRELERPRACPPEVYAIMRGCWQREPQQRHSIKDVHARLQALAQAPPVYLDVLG
For data set [2], the target named is T2, TRKB (Homo sapiens (Human), UniProt Q16620). Nature of the data set: biochemical.
T2 sequence (Q16620 32-822 limits assumed): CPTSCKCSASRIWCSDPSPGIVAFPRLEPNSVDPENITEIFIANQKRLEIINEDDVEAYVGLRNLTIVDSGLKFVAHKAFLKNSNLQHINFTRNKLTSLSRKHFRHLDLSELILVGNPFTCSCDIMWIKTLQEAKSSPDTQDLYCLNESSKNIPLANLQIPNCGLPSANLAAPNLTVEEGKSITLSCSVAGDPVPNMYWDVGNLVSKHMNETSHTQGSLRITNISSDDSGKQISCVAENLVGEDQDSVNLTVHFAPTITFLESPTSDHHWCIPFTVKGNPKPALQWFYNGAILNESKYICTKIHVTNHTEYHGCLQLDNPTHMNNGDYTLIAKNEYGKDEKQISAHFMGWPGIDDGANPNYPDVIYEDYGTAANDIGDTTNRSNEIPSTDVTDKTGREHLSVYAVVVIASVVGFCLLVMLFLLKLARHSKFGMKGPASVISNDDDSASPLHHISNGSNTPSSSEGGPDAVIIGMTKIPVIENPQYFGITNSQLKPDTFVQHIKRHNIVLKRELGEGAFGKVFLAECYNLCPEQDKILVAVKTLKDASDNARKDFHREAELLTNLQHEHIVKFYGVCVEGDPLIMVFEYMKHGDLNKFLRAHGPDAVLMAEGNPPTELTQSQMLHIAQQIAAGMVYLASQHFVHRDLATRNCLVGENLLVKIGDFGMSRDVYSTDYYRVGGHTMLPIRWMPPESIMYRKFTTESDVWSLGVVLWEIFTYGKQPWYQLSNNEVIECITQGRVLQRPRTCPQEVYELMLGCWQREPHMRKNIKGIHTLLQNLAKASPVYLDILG
The target of data set [3] is T1, TRKA. Nature of the data set: Cell based DiscoveRx PathHunter antagonist assay, TRKA cell line. To be noted: read-out: TrkA cell potency. As to the method: (§1) After the Detection Reagent addition, plates are covered and incubated at room temperature for 60 minutes. […] Test compound data are expressed as percentage inhibition defined by HPE and ZPE values for each plate. Percentage inhibition in the presence of test compound is plotted against compound concentration on a log scale to determine an IC50 from the resultant sigmoid curve. Cell Based Assays were carried out using Cell lines from DiscoveRx utilising their PathHunter technology and reagents in an antagonist assay:
(§2) The assays are based upon DiscoveRx's proprietary Enzyme Fragment Complementation (EFC) technology. In the case of the TRK cell lines, the enzyme acceptor (EA) protein is fused to a SH2 protein and the TRK receptor of interest has been tagged with a Prolink tag.
(§3) Upon neurotrophin binding, the TRK receptor becomes phosphorylated, and the tagged SH2 protein binds.
(§4) This means that the IC50 is a good measure of affinity and should be unaffected by concentration neurotrophin stimulant.
(§5) Cryopreserved PathHunter cells are used from either in-house produced batches or bulk batches bought directly from DiscoveRx. Cryopreserved cells are resuscitated, spun 1000 rpm for 4 min to remove freezing media, and resuspended in MEM+0.5% horse serum (both Invitrogen) to 5e^5 cells/ml. The cells are then plated using a Multidrop into Greiner white tissue culture treated plates at 20 ul/well and incubated for 24 h at 37° C., 5% CO2, high humidity. On the day of the assay, the cell plates are allowed to cool to room temperature for 30 min prior to the assay.
(§6) Plates containing 1 ul of serially diluted compound, standard and HPE/ZPE are diluted 1/66 in assay buffer (PBS minus Ca^2+, minus Mg^2+ with 0.05% pluronic F127) using a Wellmate. […] The plates are left at room temperature for a further 2 hours before addition of 10 ul of the DiscoveRx PathHunter detection reagent (made up by adding 1 part Galacton Star, 5 parts Emerald II and 19 parts Cell Assay Buffer as per the manufacturer's instructions).
(§7) After reagent addition, plates are covered and incubated at room temperature for 60 minutes. Luminescence signal is read using an Envision. Test compound data are expressed as percentage inhibition defined by HPE and ZPE values for each plate. Percentage inhibition in the presence of test compound is plotted against compound concentration on a log scale to determine an […] from the resultant sigmoid curve.
Target sequence in this assay (P04629 33-796): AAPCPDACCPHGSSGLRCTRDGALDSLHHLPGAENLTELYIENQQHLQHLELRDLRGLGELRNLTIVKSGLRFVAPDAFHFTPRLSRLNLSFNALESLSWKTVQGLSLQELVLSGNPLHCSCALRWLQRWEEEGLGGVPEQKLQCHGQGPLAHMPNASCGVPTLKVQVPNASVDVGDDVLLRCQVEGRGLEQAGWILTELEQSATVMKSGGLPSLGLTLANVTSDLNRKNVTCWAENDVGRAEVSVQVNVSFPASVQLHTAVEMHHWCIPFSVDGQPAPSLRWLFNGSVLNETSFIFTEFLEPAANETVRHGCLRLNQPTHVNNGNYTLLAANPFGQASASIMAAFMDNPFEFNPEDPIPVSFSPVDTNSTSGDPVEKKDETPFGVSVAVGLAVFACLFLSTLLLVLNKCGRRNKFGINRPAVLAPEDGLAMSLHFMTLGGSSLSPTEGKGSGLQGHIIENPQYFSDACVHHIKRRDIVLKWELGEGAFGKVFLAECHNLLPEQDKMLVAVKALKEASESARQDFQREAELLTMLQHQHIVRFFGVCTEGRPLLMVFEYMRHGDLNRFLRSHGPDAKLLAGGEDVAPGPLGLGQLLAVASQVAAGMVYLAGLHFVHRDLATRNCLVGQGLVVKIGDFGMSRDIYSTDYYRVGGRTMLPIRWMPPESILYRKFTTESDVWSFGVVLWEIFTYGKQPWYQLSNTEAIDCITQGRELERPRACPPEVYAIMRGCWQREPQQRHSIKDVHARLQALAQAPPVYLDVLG

The target of data set [4] is T2, TRKB. Kind of data set: cell-based. As to conditions: TrkB cell potency, TRKB PathHunter cell line. The procedure:
as §1, §2, §3, §4, §5, §6, §7

Data set [5] addresses TRKC (Homo sapiens (Human), UniProt Q16288). Nature of the data set: Cell based DiscoveRx PathHunter antagonist assay, TRKC cell line. To be noted: read-out: TrkC cell potency. The procedure: as §1, §2, §3, §4, §5, §6, §7
For data set [6], the target named is MDR1 (Homo sapiens (Human), UniProt P08183). Nature of the data set: MDCK-MDR1 assay (in vitro brain penetration). Format: in vitro ADME. To be noted: for Papp B→A / Papp A→B: human; for Papp B→A: read-out: MDCK MDR1 Papp BA; for Papp A→B / MDCK MDR1 Papp AB: MDCK-MDR1, A to B; for Papp A→B: read-out: MDCK MDR1 Papp AB. The source says: MDCK-MDR1: MDCK-MDR1 data were collected according to the method described in “Are MDCK Cells Transfected with the Human MDR1 Gene a Good Model of the Human Intestinal Mucosa?”
Sequence of MDR1 (P08183 whole entry): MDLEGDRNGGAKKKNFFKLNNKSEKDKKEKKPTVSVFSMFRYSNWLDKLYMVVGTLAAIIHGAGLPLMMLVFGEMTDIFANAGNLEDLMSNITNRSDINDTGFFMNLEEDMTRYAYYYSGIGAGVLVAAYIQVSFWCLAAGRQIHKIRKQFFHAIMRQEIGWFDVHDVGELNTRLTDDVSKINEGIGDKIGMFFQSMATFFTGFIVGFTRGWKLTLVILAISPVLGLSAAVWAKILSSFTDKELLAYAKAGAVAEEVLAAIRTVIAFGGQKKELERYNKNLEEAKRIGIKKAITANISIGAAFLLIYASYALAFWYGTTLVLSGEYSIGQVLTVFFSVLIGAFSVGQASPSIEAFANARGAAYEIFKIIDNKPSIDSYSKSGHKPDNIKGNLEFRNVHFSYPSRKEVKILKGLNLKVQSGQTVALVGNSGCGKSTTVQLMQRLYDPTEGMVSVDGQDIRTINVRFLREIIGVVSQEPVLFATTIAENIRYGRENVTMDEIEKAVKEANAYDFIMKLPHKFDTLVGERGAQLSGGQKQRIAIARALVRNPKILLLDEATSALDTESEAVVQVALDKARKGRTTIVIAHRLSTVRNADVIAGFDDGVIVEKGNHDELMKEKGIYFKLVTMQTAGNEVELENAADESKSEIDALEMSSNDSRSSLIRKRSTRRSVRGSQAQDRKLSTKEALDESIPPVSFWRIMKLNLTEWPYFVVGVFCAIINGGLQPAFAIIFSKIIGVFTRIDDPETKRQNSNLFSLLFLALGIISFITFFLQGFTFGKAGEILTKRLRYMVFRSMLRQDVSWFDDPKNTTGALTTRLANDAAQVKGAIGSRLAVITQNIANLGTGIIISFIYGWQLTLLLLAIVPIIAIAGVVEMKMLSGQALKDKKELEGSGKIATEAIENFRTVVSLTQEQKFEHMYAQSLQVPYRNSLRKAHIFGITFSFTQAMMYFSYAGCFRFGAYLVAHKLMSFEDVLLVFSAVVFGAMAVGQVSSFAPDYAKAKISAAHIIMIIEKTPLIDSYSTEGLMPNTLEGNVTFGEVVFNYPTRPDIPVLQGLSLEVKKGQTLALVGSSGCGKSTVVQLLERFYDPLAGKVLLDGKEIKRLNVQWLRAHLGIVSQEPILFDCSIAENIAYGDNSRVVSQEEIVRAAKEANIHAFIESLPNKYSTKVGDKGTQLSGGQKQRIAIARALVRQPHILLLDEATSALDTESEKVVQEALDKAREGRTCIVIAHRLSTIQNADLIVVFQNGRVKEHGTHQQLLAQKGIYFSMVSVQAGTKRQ
http://www.springerlink.com/content/qfhqlqbr4fnp3 khf/fulltext.pdf

Where [7] appears, read: isolated TRKB enzyme, read-out: TrkB enzyme potency.

pIC50: −log10 of the molar value. Like-named read-outs stand apart in the source and are kept apart here.

Sequence of TRKC (Q16288 32-839): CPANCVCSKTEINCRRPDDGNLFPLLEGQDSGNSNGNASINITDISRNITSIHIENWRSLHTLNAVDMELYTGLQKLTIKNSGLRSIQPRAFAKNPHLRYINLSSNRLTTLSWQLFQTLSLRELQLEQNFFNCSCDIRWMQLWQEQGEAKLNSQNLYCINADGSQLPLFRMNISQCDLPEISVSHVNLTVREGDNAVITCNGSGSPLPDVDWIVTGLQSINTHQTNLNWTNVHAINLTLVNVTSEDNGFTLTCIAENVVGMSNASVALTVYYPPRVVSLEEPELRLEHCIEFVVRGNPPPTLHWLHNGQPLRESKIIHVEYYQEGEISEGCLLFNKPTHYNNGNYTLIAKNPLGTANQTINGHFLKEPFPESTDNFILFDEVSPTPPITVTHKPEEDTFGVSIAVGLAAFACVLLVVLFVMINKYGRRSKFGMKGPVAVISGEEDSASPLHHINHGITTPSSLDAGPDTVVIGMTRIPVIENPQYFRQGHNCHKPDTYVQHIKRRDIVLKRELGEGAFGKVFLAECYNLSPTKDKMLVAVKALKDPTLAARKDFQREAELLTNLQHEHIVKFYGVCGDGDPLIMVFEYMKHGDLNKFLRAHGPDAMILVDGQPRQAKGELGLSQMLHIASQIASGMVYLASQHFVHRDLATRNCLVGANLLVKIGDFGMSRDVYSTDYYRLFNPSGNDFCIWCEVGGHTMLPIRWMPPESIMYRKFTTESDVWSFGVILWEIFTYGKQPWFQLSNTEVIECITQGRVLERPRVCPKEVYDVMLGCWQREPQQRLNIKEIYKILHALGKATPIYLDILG

On to `CC(CO)n1cc(C(=O)c2cncc(NC(=O)Cc3ccc(Cl)cc3)c2)c2cnc(N)nc21` (single isomer, unassigned) [Example 34, N-(5-{[2-Amino-7-(2-hydroxy-1-methylethyl)-7H-pyrrolo[2,3-d]pyrimidin-5-yl]carbonyl}pyridin-3-yl)-2-(4-chlorophenyl)acetamide], for which the pIC50 in data set [1] was 8.44; in data set [2] (setting [7]) it was 6.70; in data set [3], 7.64; in data set [4], 7.60; in data set [5], 7.89. Moreover, the Papp B→A in data set [6] (MDCK-MDR1, MDCK-MDR1, B to A) was determined as 11 ×10⁻⁶ cm/s. Besides, the Papp A→B in data set [6] was under 1 ×10⁻⁶ cm/s.
With `CC(CO)n1cc(C(=O)c2cncc(NC(=O)Cc3ccc(C(F)(F)F)cc3)c2)c2cnc(N)nc21` (single isomer, unassigned) [Example 36, N-(5-{[2-amino-7-(2-hydroxy-1-methylethyl)-7H-pyrrolo[2,3-d]pyrimidin-5-yl]carbonyl}pyridin-3-yl)-2-[4-(trifluoromethyl)phenyl]acetamide], the pIC50 was 8.35 in data set [1]; 6.52 in data set [2] (setting [7]); 7.96 in data set [3]; 7.89 in data set [4]; 7.89 in data set [5]. Also, the Papp B→A in data set [6] (MDCK-MDR1, MDCK-MDR1, B to A) amounted to 12 ×10⁻⁶ cm/s. Besides, in data set [6], the Papp A→B is under 1 ×10⁻⁶ cm/s.
For `CC(CO)n1cc(C(=O)c2cncc(NC(=O)Cc3ccc(Cl)cc3)c2)c2cnc(N)nc21` (single isomer, unassigned) [Example 42, N-(5-{[2-amino-7-(2-hydroxy-1-methylethyl)-7H-pyrrolo[2,3-d]pyrimidin-5-yl]carbonyl}pyridin-3-yl)-2-(4-chlorophenyl)acetamide], the pIC50 in data set [1] was 8.42; in data set [2] (setting [7]) it was 6.72; in data set [3], 7.36; in data set [4] it was 7.57; in data set [5], 7.89. Also, in data set [6], the “MDCK MDR1 Papp AB” value was under 1 ×10⁻⁶ cm/s. Also, the “MDCK MDR1 Papp BA” value in data set [6] (MDCK-MDR1, B to A) stood at 9.5 ×10⁻⁶ cm/s.
For the molecule `CC(CO)n1cc(C(=O)c2cncc(NC(=O)Cc3ccc(C(F)(F)F)cc3)c2)c2cnc(N)nc21` (single isomer, unassigned) [Example 43, N-(5-{[2-amino-7-(2-hydroxy-1-methylethyl)-7H-pyrrolo[2,3-d]pyrimidin-5-yl]carbonyl}pyridin-3-yl)-2-[4-(trifluoromethyl)phenyl]acetamide], the pIC50 in data set [1] is 8.29; in data set [2] (setting [7]), 6.87; in data set [3], 7.77; in data set [4], 7.72; in data set [5], 7.96. In addition, the “MDCK MDR1 Papp AB” value in data set [6] is under 1 ×10⁻⁶ cm/s. Moreover, the “MDCK MDR1 Papp BA” value in data set [6] (MDCK-MDR1, B to A) stood at 13 ×10⁻⁶ cm/s.
Regarding `CC(C)(C)n1cc(C(=O)c2cncc(NC(=O)Cn3cc(C(F)(F)F)nn3)c2)c2cncnc21` [Example 2, N-{5-[(7-tert-butyl-7H-pyrrolo[2,3-d]pyrimidin-5-yl)carbonyl]pyridin-3-yl}-2-[4-(trifluoromethyl)-1H-1,2,3-triazol-1-yl]acetamide], the pIC50 in data set [1] is 8.08; in data set [2] (TrkB enzyme potency) it was 6.95; in data set [3] it was 8.28; in data set [4], 8.41; in data set [5] it was 8.96. Moreover, in data set [6], the Papp A→B was under 1 ×10⁻⁶ cm/s. Moreover, in data set [6] (MDCK-MDR1, B to A), the Papp B→A is 15 ×10⁻⁶ cm/s.
Consider `CC(C)(C)n1cc(C(=O)c2cncc(NC(=O)Cn3ccc(C(F)(F)F)n3)c2)c2cncnc21` [Example 5, N-{5-[(7-tert-butyl-7H-pyrrolo[2,3-d]pyrimidin-5-yl)carbonyl]pyridin-3-yl}-2-[3-(trifluoromethyl)-1H-pyrazol-1-yl]acetamide], for which the pIC50 in data set [1] was 8.59; in data set [2] (setting [7]), 7.14; in data set [3], 8.46; in data set [4] it was 8.44; in data set [5], 8.70. In data set [6] (MDCK-MDR1, MDCK-MDR1, B to A), the Papp B→A was determined as 14 ×10⁻⁶ cm/s. For the same molecule, the Papp A→B in data set [6] worked out at 1.5 ×10⁻⁶ cm/s.
Turning to `CC(C)(C)n1cc(C(=O)c2cncc(NC(=O)Cn3cc(C(F)(F)F)cn3)c2)c2cncnc21` [Example 8, N-{5-[(7-tert-butyl-7H-pyrrolo[2,3-d]pyrimidin-5-yl)carbonyl]pyridin-3-yl}-2-[4-(trifluoromethyl)-1H-pyrazol-1-yl]acetamide], the pIC50 is 8.62 in data set [1]; 7.82 in data set [2] (TrkB enzyme potency); 8.72 in data set [3]; 8.70 in data set [4]; 8.64 in data set [5]. Besides, in data set [6], the Papp A→B was 1.8 ×10⁻⁶ cm/s. The Papp B→A in data set [6] (MDCK-MDR1, B to A) worked out at 15 ×10⁻⁶ cm/s.
Consider `Cc1cc(C(F)(F)F)nn1CC(=O)Nc1cncc(C(=O)c2cn([C@@H](C)CO)c3ncncc23)c1` [Example 10, N-[5-({7-[(1S)-2-Hydroxy-1-methylethyl]-7H-pyrrolo[2,3-d]pyrimidin-5-yl}carbonyl)pyridin-3-yl]-2-[5-methyl-3-(trifluoromethyl)-1H-pyrazol-1-yl]acetamide], for which the pIC50 is 8.24 in data set [1]; 7.11 in data set [2] (setting [7]); 7.52 in data set [3]; 7.74 in data set [4]; 7.74 in data set [5]. The Papp B→A in data set [6] (MDCK-MDR1, MDCK-MDR1, B to A) stood at 14 ×10⁻⁶ cm/s. Besides, the Papp A→B in data set [6] is under 1 ×10⁻⁶ cm/s.
Consider `C[C@@H](CO)n1cc(C(=O)c2cncc(NC(=O)Cc3ccc(Cl)cc3)c2)c2cncnc21` [Example 11, 2-(4-chlorophenyl)-N-[5-({7-[(1S)-2-hydroxy-1-methylethyl]-7H-pyrrolo[2,3-d]pyrimidin-5-yl}carbonyl)pyridin-3-yl]acetamide], for which the pIC50 is 8.48 in data set [1]; 6.71 in data set [2] (TrkB enzyme potency); 7.77 in data set [3]; 7.96 in data set [4]; 8.18 in data set [5]. The Papp A→B in data set [6] was under 1 ×10⁻⁶ cm/s. Moreover, the Papp B→A in data set [6] (MDCK-MDR1, B to A) was 23 ×10⁻⁶ cm/s.
For the molecule `Cc1cc(C(F)(F)F)nn1CC(=O)Nc1cncc(C(=O)c2cn(C(C)(C)CO)c3nc(N)ncc23)c1` [Example 47, N-(5-{[2-Amino-7-(2-hydroxy-1,1-dimethylethyl)-7H-pyrrolo[2,3-d]pyrimidin-5-yl]carbonyl}pyridin-3-yl)-2-[5-methyl-3-(trifluoromethyl)-1H-pyrazol-1-yl]acetamide], the pIC50 in data set [1] was 7.60; in data set [2] (setting [7]), 7.57; in data set [3], 7.46; in data set [4] it was 7.89. In data set [6] (MDCK-MDR1, MDCK-MDR1, B to A), the Papp B→A was determined as 21 ×10⁻⁶ cm/s. Besides, the Papp A→B in data set [6] is under 1 ×10⁻⁶ cm/s.
Take `CC(C)(CO)n1cc(C(=O)c2cncc(NC(=O)Cc3ccc(F)cc3F)c2)c2cnc(N)nc21` [Example 50, N-(5-{[2-amino-7-(2-hydroxy-1,1-dimethylethyl)-7H-pyrrolo[2,3-d]pyrimidin-5-yl]carbonyl}pyridin-3-yl)-2-(2,4-difluorophenyl)acetamide]: the pIC50 in data set [1] is 8.18; in data set [2] (setting [7]), 6.84; in data set [3], 8.00; in data set [4] it was 8.68. Besides, the Papp B→A in data set [6] (MDCK-MDR1, MDCK-MDR1, B to A) came to 24 ×10⁻⁶ cm/s. Also, in data set [6], the Papp A→B was under 1 ×10⁻⁶ cm/s.
In the case of `CC(C)(CO)n1cc(C(=O)c2cncc(NC(=O)Cn3nc4ccccc4n3)c2)c2cnc(N)nc21` [Example 55, N-(5-{[2-Amino-7-(2-hydroxy-1,1-dimethylethyl)-7H-pyrrolo[2,3-d]pyrimidin-5-yl]carbonyl}pyridin-3-yl)-2-(2H-benzotriazol-2-yl)acetamide], the pIC50 is 8.15 in data set [1], 6.75 in data set [2] (TrkB enzyme potency), 7.92 in data set [3] and 8.35 in data set [4]. The Papp A→B in data set [6] is under 1 ×10⁻⁶ cm/s. In addition, the Papp B→A in data set [6] (MDCK-MDR1, B to A) is 20 ×10⁻⁶ cm/s.
With `CC(C)(CO)n1cc(C(=O)c2cncc(NC(=O)Cn3cc(C4CC4)nn3)c2)c2cnc(N)nc21` [Example 56, N-(5-{[2-Amino-7-(2-hydroxy-1,1-dimethylethyl)-7H-pyrrolo[2,3-d]pyrimidin-5-yl]carbonyl}pyridin-3-yl)-2-(4-cyclopropyl-1H-1,2,3-triazol-1-yl)acetamide], the pIC50 in data set [1] is 8.02; in data set [2] (TrkB enzyme potency) it was 6.02; in data set [3], 6.35; in data set [4], 6.29. Moreover, in data set [6], the Papp A→B was found to be 1.1 ×10⁻⁶ cm/s. Also, the Papp B→A in data set [6] (MDCK-MDR1, B to A) was found to be 1 ×10⁻⁶ cm/s.
